Data from patent US9181259B2 (LEO PHARMA A/S, priority 2012, dated 2015).
Entries after “also recorded” stand apart in the source; their conditions may differ.

Assays:
[1] = molecular target: T1, NK-1 receptor (Meriones unguiculatus, UniProt Q5DUB1); assay: Gerbil scratching model (scratching induced by NK-1 agonist GR73632); type: in vivo, Mongolian gerbil; conditions: for attenuation of scratching induced in gerbils by the NK-1 selective agonist GR73632: topical application 1% w/v (20 μL) 20 min before i.d. GR73632 100 nmol/100 μL, male Mongolian gerbils
T1 construct: animals (male Mongolian gerbils) were shaved on the rostral part of the back; from tissue; host or cells: living male Mongolian gerbils (skin, topical application; in vivo)
T1 sequence (Q5DUB1 whole entry): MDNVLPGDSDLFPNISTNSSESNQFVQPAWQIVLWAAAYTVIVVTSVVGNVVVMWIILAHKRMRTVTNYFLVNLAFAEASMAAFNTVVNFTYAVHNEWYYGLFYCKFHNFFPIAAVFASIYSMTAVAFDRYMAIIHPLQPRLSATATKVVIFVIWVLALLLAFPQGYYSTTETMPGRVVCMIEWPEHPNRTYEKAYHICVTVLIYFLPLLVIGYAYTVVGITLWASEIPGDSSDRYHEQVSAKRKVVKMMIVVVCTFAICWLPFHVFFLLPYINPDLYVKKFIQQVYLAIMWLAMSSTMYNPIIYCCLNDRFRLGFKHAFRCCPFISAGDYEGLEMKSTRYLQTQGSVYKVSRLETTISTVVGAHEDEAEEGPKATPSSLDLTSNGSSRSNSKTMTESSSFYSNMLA
Experimental: The gerbil was selected for this study as this species shares higher homology to the human in terms of NK-1 receptor pharmacology compared to other laboratory rodents.
Each test compound was tested on 11 or 12 animals. On the day of the test, the gerbils (four animals simultaneously) were put into a Plexiglas cage (42×42×35 cm) composed of four cells (20.5×20.5×35 cm) for 10 minutes of habituation. After this period, the test compound (1% w/v in acetone and transcutol 9:1) was topically applied on the shaven area in a volume of 20 μL. Topical application was performed using a Hamilton syringe (25 μL) and a square stencil of impermeable paper (1.5×1.5 cm) to allow application over a defined skin area (2.25 cm2). […] I.d. injection was made with a Hamilton syringe (250 μL) connected to a 27 gauge needle. Immediately after injection, animals were placed back into the same cell of the Plexiglas cage they were previously habituated in and their behaviour was recorded on video remotely for 30 minutes. The experimenter remained out of the observation room in order to minimize disturbance to the animals. The video was subsequently analysed to assess scratching behaviour. Scratching of the injection site by the hind paws was counted while scratching of other sites such as ears and snout were disregarded. Scratching episodes were measured over 10-minutes time intervals, for a total of 30 minutes.
Results were expressed as mean value±SEM. Statistical analysis was performed by a one-way ANOVA followed by LSD post hoc test with the exception of time-course analysis for a repeated-measure ANOVA followed by LSD post hoc test was performed.

[2] = molecular target: T2, NK1 receptor (Homo sapiens, UniProt P25103); assay: NK1 receptor mediated intracellular [Ca2+] mobilization in U251 MG cells using FLIPR; type: cell-based; conditions: antagonist potency against Substance P (EC80), normalized to 100 nM Aprepitant, read-out: U251MG (FLIPR pIC50) (converted)
T2 construct: Measurement of NK1 Receptor Mediated Intracellular [Ca^2+]; Mobilization in U251 MG Cells Using FLIPR; endogenous in cells; host or cells: U251 MG cells
T2 sequence (P25103 whole entry): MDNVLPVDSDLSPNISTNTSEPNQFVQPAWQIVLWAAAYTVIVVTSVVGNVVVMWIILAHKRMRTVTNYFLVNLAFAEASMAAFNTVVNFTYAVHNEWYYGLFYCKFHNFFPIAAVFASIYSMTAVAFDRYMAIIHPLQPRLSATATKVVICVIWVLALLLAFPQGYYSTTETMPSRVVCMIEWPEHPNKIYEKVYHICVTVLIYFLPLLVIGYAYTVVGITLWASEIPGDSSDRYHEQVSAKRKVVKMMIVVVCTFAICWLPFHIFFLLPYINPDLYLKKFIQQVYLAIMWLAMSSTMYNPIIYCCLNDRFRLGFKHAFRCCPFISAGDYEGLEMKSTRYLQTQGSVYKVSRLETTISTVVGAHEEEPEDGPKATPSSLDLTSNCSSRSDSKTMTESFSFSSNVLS
Method in brief: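 Fluo-4-loaded U251 MG cells were preincubated with compound (0.5% DMSO final), with any agonist effect read for 5 min, then 10 min more at 37 °C before Substance P at EC80. Peak FLIPR fluorescence change was read, and IC50 came from a four-parameter fit as the midpoint between fitted top and bottom.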

[3] = Hepatic intrinsic clearance following incubation in human liver microsomes; type: in vitro ADME; conditions: NADPH regenerating system, 0-30 min, 37 °C
Method in brief: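 Compounds (from 50 µM working solution) are incubated with human liver microsomes diluted to 0.55 mg/mL in phosphate pH 7.4, with NADPH regeneration at 37 °C and sampling at 0–30 min. LC-MS/MS parent depletion gives kobs, scaled to mL/min/g liver. Eh uses 25.7 g liver/kg and 20.7 mL/min/kg blood flow.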

Row | Compound | IC50 [2] [nM] | attenuation of scratching induced in gerbils by the NK-1 selective agonist GR73632 [1] | Human in vitro Clint (mL/min/g liver) [3] [mL/min/g liver] | induction of scratching (number of scratches) ([1]; intradermal injection 100 nmol/100 μL, 30 min time course, repeated-measure ANOVA, gerbil)
1 | 5-Aminopentanoyl-L-phenylalanyl-L-phenylalanyl-L-prolyl-L-(N-methyl)leucyl-L-methioninamide [GR73632, reference compound] |  |  |  | induced an increase in the number of scratches; also recorded: induced an increase of scratching
2 | Cc1ccccc1[C@H]1[C@@H]2CCC(=O)N2CCN1C(=O)N(C)[C@H](C)c1cc(C(F)(F)F)cc(C(F)(F)F)c1 (single isomer, unassigned) [Compound 9] | 0.0347 | able to attenuate the scratching | 4.5 | 
3 | Cc1ccccc1C1C2CC(CN3CCOCC3)C(=O)N2CCN1C(=O)N(C)Cc1cc(C(F)(F)F)cc(C(F)(F)F)c1 (single isomer, unassigned) [Compound 38] | 0.195 | not able to attenuate the scratching | 3.3 | 
4 | Cc1ccccc1C1C2CC(CCO)(CCO)C(=O)N2CCN1C(=O)N(C)Cc1cc(C(F)(F)F)cc(C(F)(F)F)c1 (single isomer, unassigned) [Compound 44, N-{[3,5-bis(trifluoromethyl)phenyl]methyl}-7,7-bis(2-hydroxyethyl)-N-methyl-1-(2-methylphenyl)-6-oxo-octahydropyrrolo[1,2-a]piperazine-2-carboxamide] | 0.0692 | able to attenuate the scratching | 2.6 | 
5 | Cc1ccccc1C1C2CC(CCO)(CCO)C(=O)N2CCN1C(=O)N(C)[C@H](C)c1cc(C(F)(F)F)cc(C(F)(F)F)c1 (single isomer, unassigned) [Compound 54] | 0.12 | able to attenuate the scratching | 9.5 | 
6 | Cc1ccccc1C1C2CC(CO)C(=O)N2CCN1C(=O)N(C)[C@H](C)c1cc(C(F)(F)F)cc(C(F)(F)F)c1 (single isomer, unassigned) [Compound 55] | 0.151 | not able to attenuate the scratching | 2.4 | 

The next lines start with results.

Row | IC50 [2] [nM] | attenuation of scratching induced in gerbils by the NK-1 selective agonist GR73632 [1] | Human in vitro Clint (mL/min/g liver) [3] [mL/min/g liver] | Compound | induction of scratching (number of scratches) ([1]; intradermal injection 100 nmol/100 μL, 30 min time course, repeated-measure ANOVA, gerbil)
7 | 0.339 | able to attenuate the scratching | 6.1 | Cc1ccccc1C1C2CC(CCO)(CCO)CN2CCN1C(=O)N(C)[C@H](C)c1cc(C(F)(F)F)cc(C(F)(F)F)c1 (single isomer, unassigned) [Compound 60] | 
8 | 0.0316 |  | 51 | Cc1ccccc1[C@H]1[C@@H]2CCC(=O)N2CCN1C(=O)N(C)[C@H](C)c1cc(C(C)C)cc(C(F)(F)F)c1 [Compound 112, (1S,8aS)-N-((R)-1-(3-isopropyl-5-(trifluoromethyl)phenyl)ethyl)-N-methyl-6-oxo-1-o-tolylhexahydropyrrolo[1,2-a]pyrazine-2(1H)-carboxamide] | 
9 | 0.0316 |  | 56 | Cc1ccccc1[C@H]1[C@@H]2CC(CCO)(CCO)C(=O)N2CCN1C(=O)N(C)[C@H](C)c1cc(C(C)C)cc(C(F)(F)F)c1 [Compound 113, (1S,8aS)-7,7-bis(2-hydroxyethyl)-N-((R)-1-(3-isopropyl-5-(trifluoromethyl)phenyl)ethyl)-N-methyl-6-oxo-1-o-tolylhexahydropyrrolo[1,2-a]pyrazine-2(1H)-carboxamide] | 
